Experimental data from patent US11976083B2, “Inhibitors of peptidylarginine deiminases” (Gilead Sciences, Inc., priority 2020, dated 2024).

Each compound was assayed against T1, human PAD4 (Homo sapiens, UniProt Q9UM07) (assay: In vitro PAD4 BAEE biochemical assay). Conditions: BAEE substrate 3 mM, 5 nM PAD4, 2 mM calcium chloride; geometric mean of multiple experiments.
T1 construct: human PAD4 (NM_012387), A2-P663, was PCR amplified; His-SUMO (N, cleaved yes); made in house; host or cells: E. coli BL21(DE3)
T1 sequence (Q9UM07 2-663): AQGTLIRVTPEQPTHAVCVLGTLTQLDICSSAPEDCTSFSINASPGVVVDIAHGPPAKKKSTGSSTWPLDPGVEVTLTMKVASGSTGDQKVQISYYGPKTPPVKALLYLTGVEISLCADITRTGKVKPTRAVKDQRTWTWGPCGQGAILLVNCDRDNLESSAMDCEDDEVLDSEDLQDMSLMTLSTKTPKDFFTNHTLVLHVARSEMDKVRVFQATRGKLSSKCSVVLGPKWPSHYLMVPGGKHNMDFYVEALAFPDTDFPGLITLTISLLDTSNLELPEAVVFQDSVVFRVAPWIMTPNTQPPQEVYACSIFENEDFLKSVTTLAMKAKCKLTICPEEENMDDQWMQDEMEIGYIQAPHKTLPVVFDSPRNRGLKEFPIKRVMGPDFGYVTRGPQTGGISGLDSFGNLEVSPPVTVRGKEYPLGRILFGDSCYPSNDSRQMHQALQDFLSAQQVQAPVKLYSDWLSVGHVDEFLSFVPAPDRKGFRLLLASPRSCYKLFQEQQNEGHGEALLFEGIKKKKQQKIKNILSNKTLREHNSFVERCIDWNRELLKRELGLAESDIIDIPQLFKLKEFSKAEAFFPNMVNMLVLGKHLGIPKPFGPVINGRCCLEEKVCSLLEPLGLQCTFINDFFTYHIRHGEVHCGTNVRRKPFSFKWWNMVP
Excerpt: In Vitro PAD4 BAEE Biochemical Assay
The enzymatic activity of human PAD4 was monitored in a biochemical assay in the presence or absence of compounds using the small peptidyl arginine mimic BAEE (Na-Benzoyl-L-arginine ethyl ester hydrochloride) as substrate. PAD4 activity led to deimination of BAEE and release of ammonia. Levels of ammonia were monitored by using an amine coupling reaction and were indicative of PAD4 enzymatic activity.
One hundred nanoliters of test compounds dissolved in DMSO at various concentrations were dispensed into a 384-well black OptiPlate using a Labcyte Echo instrument. Ten microliters of a solution of recombinant PAD4 and calcium chloride diluted in PAD4 assay buffer (50 mM MOPS [3-(N-morpholino) propanesulfonic acid], pH 7.6; 50 mM sodium chloride; 0.05% Tween-20; 2 mM dithiothreitol) was added to the compound-containing plate and was incubated for 30 minutes at 25° C. Ten microliters of a solution of BAEE (Sigma-Aldrich #B4500) diluted in PAD4 assay buffer was then added to start the reaction. Final concentrations were 5 nM PAD4, 2 mM calcium chloride, and 3 mM BAEE. The reaction mixture was incubated at 25° C. for 2 hours and was stopped with the addition of 10 microliters of a solution of 75 mM EDTA (Ethylenediaminetetraacetic acid) in PAD4 assay buffer. Thirty microliters of detection solution (5 mM o-phthalaldehyde, 50 mM MOPS [3-(N-morpholino) propanesulfonic acid], pH 7.6; 50 mM sodium chloride; 0.05% Tween-20; 5 mM dithiothreitol) was then added and the reaction was incubated for 1 hour at 25° C. The level of fluorescent thiol-substituted isoindole resulting from the reaction of ammonia, o-phthalaldehyde, and dithiothreitol was measured on an Envision plate reader (PerkinElmer) with 405 nm excitation and 535 nm emission.
Data were normalized based on maximum inhibition (50 micromolar of the covalent PAD inhibitor BB-Cl-Amidine (Bicker, K. L.; Anguish, L.; Chumanevich, A. A.; Cameron, M. D.; Cui, X.; Witalison, E.; Subramanian, V.; Zhang, X.; Chumanevich, A. P.; Hofseth, L. J.; Coonrod, S. A.; Thompson, P. R. ACS Med. Chem. Lett. 2012, 3, 1081-1085). and no inhibition (DMSO) controls. Least squares curve fittings were performed using a four-parameter variable slope nonlinear regression model. IC50 is defined as the concentration of compound required to inhibit 50% of maximum activity. IC50 values from multiple experiments were averaged by geometric mean and the standard deviation was calculated.
In the case of `COc1cc(C(=O)N2CC[C@H]3CCCN[C@H]3C2)cc2nc(-c3cc4ccc5nc4n3CCCCCCC(C)(C)C(=O)N[C@@H]5C)n(C)c12` (single isomer, unassigned) [Example 261, (11˜{R})-17-[5-[(4˜{a}˜{R},8˜{a}˜{R})-2,3,4,4˜{a},5,6,8,8˜{a}-octahydro-1˜{H}-1,7-naphthyridine-7-carbonyl]-7-methoxy-1-methyl-benzimidazol-2-yl]-8,8,11-trimethyl-1,10,19-triazatricyclo[10.5.2.0^{15,18}]nonadeca-12(19),13,15(18),16-tetraen-9-one], the IC50 is reported as 106 nM. `COc1cc(C(=O)N2CC[C@@H]3CCCN[C@@H]3C2)cc2nc(-c3cc4ccc5nc4n3CCCCCCC(C)(C)C(=O)N[C@@H]5C)n(C)c12` (single isomer, unassigned) [Example 262, (11˜{R})-17-[5-[(4˜{a}˜{S},8˜{a}˜{S})-2,3,4,4˜{a},5,6,8,8˜{a}-octahydro-1˜{H}-1,7-naphthyridine-7-carbonyl]-7-methoxy-1-methyl-benzimidazol-2-yl]-8,8,11-trimethyl-1,10,19-triazatricyclo[10.5.2.0^{15,18}]nonadeca-12(19),13,15(18),16-tetraen-9-one] was tested, and the IC50 was 4440 nM. Compound `C[C@H]1NC(=O)[C@@H]2C[C@H]2CCCCCn2c(-c3nc4cc(C(=O)N[C@H]5CNCC[C@@H]5F)c(F)c(F)c4n3C3CC3)cc3ccc1nc32` (single isomer, unassigned) [Example 275, 1-cyclopropyl-6,7-difluoro-˜{N}-[(3˜{S},4˜{S})-4-fluoro-3-piperidyl]-2-[(2˜{R},5˜{R},7˜{R})-2-methyl-4-oxo-3,13,19-triazatetracyclo[11.5.2.0^{5,7}.0^{16,20}]icosa-1(19),14,16(20),17-tetraen-14-yl]benzimidazole-5-carboxamide] has an IC50 of 24 nM. `COc1cc(C(=O)N2CCC[C@@H](N)C2)cc2nc(-c3cc4ccc5nc4n3C[C@H]3C[C@H]3COC[C@@H](C)C(=O)N[C@@H]5C)n(C)c12` (single isomer, unassigned) [Example 312, (3˜{S},5˜{R},9˜{R},12˜{R})-18-[5-[(3˜{R})-3-aminopiperidine-1-carbonyl]-7-methoxy-1-methyl-benzimidazol-2-yl]-9,12-dimethyl-7-oxa-1,11,20-triazatetracyclo[11.5.2.0^{3,5}.0^{16,19}]icosa-13(20),14,16(19),17-tetraen-10-one] showed an IC50 of 56 nM. In the case of `COc1cc(C(=O)N2CCC[C@@H](N)C2)cc2nc(-c3cc4ccc5nc4n3C[C@H]3C[C@H]3COC[C@H](C)C(=O)N[C@@H]5C)n(C)c12` (single isomer, unassigned) [Example 313, (3˜{S},5˜{R},9˜{S},12˜{R})-18-[5-[(3˜{R})-3-aminopiperidine-1-carbonyl]-7-methoxy-1-methyl-benzimidazol-2-yl]-9,12-dimethyl-7-oxa-1,11,20-triazatetracyclo[11.5.2.0^{3,5}.0^{16,19}]icosa-13(20),14,16(19),17-tetraen-10-one], the IC50 is reported as 85 nM. With `COc1cc(C(=O)N2[C@H]3CC[C@@H]2[C@H](N)C3)cc2nc(-c3cc4ccc5nc4n3C[C@H]3C[C@H]3COCCC(=O)N[C@@H]5C)c(C)n12` (single isomer, unassigned) [Example 327, (3˜{S},5˜{R},12˜{R})-18-[7-[(1˜{R},2˜{R},4˜{S})-2-amino-7-azabicyclo[2.2.1]heptane-7-carbonyl]-5-methoxy-3-methyl-imidazo[1,2-a]pyridin-2-yl]-12-methyl-7-oxa-1,11,20-triazatetracyclo[11.5.2.0^{3,5}.0^{16,19}]icosa-13(20),14,16(19),17-tetraen-10-one] the IC50 was 12 nM. Compound `COc1cc(C(=O)N2[C@H]3CC[C@@H]2[C@H](N)C3)cc2nc(-c3cc4ccc5nc4n3C[C@@H]3C[C@@H]3COCCC(=O)N[C@@H]5C)c(C)n12` (single isomer, unassigned) [Example 328, (3˜{R},5˜{S},12˜{R})-18-[7-[(1˜{R},2˜{R},4˜{S})-2-amino-7-azabicyclo[2.2.1]heptane-7-carbonyl]-5-methoxy-3-methyl-imidazo[1,2-a]pyridin-2-yl]-12-methyl-7-oxa-1,11,20-triazatetracyclo[11.5.2.0^{3,5}.0^{16,19}]icosa-13(20),14,16(19),17-tetraen-10-one] has an IC50 of 25 nM. `COc1cc(C(=O)N2[C@H]3CC[C@@H]2[C@H](N)C3)cc2nc(-c3cc4ccc5nc4n3CCCCCC[C@@H](OC)C(=O)N[C@@H]5C)c(C)n12` (single isomer, unassigned) [Example 334, (8−{R},11−{R})-17-[7-[(1−{R},2˜{R},4˜{S})-2-amino-7-azabicyclo[2.2.1]heptane-7-carbonyl]-5-methoxy-3-methyl-imidazo[1,2-a]pyridin-2-yl]-8-methoxy-11-methyl-1,10,19-triazatricyclo[10.5.2^{15,18}]nonadeca-12(19),13,15(18),16-tetraen-9-one] showed an IC50 of 39 nM. Compound `COc1cc(C(=O)N2[C@H]3CC[C@@H]2[C@H](N)C3)cc2nc(-c3cc4ccc5nc4n3CCCCCC[C@H](OC)C(=O)N[C@@H]5C)c(C)n12` (single isomer, unassigned) [Example 335, (8˜{S},11˜{R})-17-[7-[(1˜{R},2˜{R},4˜{S})-2-amino-7-azabicyclo[2.2.1]heptane-7-carbonyl]-5-methoxy-3-methyl-imidazo[1,2-a]pyridin-2-yl]-8-methoxy-11-methyl-1,10,19-triazatricyclo[10.5.2.0^{15,18}]nonadeca-12(19),13,15(18),16-tetraen-9-one] has an IC50 of 32 nM. For `COc1cc(C(=O)N[C@H]2CNCC[C@@H]2F)cc2nc(-c3cc4ccc5nc4n3C[C@H]3[C@H](CCCC(C)(C)C(=O)N[C@@H]5C)C3(F)F)n(C)c12` (single isomer, unassigned) [Example 364, 2-[(3˜{R},5˜{S},12˜{R})-4,4-difluoro-9,9,12-trimethyl-10-oxo-1,11,20-triazatetracyclo[11.5.2.0^{3,5}.0^{16,19}]icosa-13(20),14,16(19),17-tetraen-18-yl]-˜{N}-[(3˜{S},4˜{S})-4-fluoro-3-piperidyl]-7-methoxy-1-methyl-benzimidazole-5-carboxamide], the IC50 was 203 nM. Compound `COc1cc(C(=O)N[C@H]2CNCC[C@@H]2F)cc2nc(-c3cc4ccc5nc4n3C[C@@H]3[C@@H](CCCC(C)(C)C(=O)N[C@@H]5C)C3(F)F)n(C)c12` (single isomer, unassigned) [Example 365, 2-[(3˜{S},5˜{R},12˜{R})-4,4-difluoro-9,9,12-trimethyl-10-oxo-1,11,20-triazatetracyclo[11.5.2.0^{3,5}.0^{16,19}]icosa-13(20),14,16(19),17-tetraen-18-yl]-˜{N}-[(3˜{S},4˜{S})-4-fluoro-3-piperidyl]-7-methoxy-1-methyl-benzimidazole-5-carboxamide] has an IC50 of 119 nM. With `C[C@H]1NC(=O)[C@H]2[C@@H](CCCCCn3c(-c4nc5cc(C(=O)N[C@H]6CNCC[C@@H]6F)c(F)cc5n4C)cc4ccc1nc43)C2(F)F` (single isomer, unassigned) [Example 381, 2-[(2˜{R},5˜{R},7˜{R})-6,6-difluoro-2-methyl-4-oxo-3,13,19-triazatetracyclo[11.5.2.0^{5,7}.0^{16,20}]icosa-1(19),14,16(20),17-tetraen-14-yl]-6-fluoro-˜{N}-[(3˜{S},4˜{S})-4-fluoro-3-piperidyl]-1-methyl-benzimidazole-5-carboxamide] the IC50 was 29 nM. Compound `C[C@H]1NC(=O)[C@@H]2[C@@H](CCCCCn3c(-c4nc5cc(C(=O)N[C@H]6CNCC[C@@H]6F)c(F)cc5n4C)cc4ccc1nc43)C2(F)F` (single isomer, unassigned) [Example 382, 2-[(2˜{R},5˜{S},7˜{R})-6,6-difluoro-2-methyl-4-oxo-3,13,19-triazatetracyclo[11.5.2.0^{5,7}.0^{16,20}]icosa-1(19),14,16(20),17-tetraen-14-yl]-6-fluoro-˜{N}-[(3˜{S},4˜{S})-4-fluoro-3-piperidyl]-1-methyl-benzimidazole-5-carboxamide] has an IC50 of 108 nM. Compound `C[C@H]1NC(=O)[C@@H]2C[C@H]2CCCCCn2c(-c3nc4cc(C(=O)N[C@H]5CNCC[C@@H]5F)c(F)cc4n3C3C[C@@H]3C(F)F)cc3ccc1nc32` (single isomer, unassigned) [Example 410, 1-[(1~{R},2~{S})-2-(difluoromethyl)cyclopropyl]-6-fluoro-~ {N}-[(3~{S},4~{S})-4-fluoro-3-piperidyl]-2-[(2~{R},5~{R},7~{R})-2-methyl-4-oxo-3,13,19-triazatetracyclo[11.5.2.0^{5,7}.0^{16,20}]icosa-1(19),14,16(20),17-tetraen-14-yl]benzimidazole-5-carboxamide] has an IC50 of 51 nM.
